Measurements from patent US11001615B2, “Mutated tau protein fragment and use thereof” (ADEL INC., priority 2016, dated 2021).
Ends that are not written are not given here.

Experiments:
Format in all cases: in vivo
Tau-P301L dementia mice [1] = test: Western blotting of brain tissues for GCP-II; settings: brain tissue
Description: (§1) JNPL3 mice expressing Tau-P301L mutant gene were purchased from Taconic, and back-crossed with C57bl/6 mice for five generations in the experimental animal room of the Asan Institute for Life Sciences. Then, the mice were raised under a specific pathogen free (SPE) condition. For active immunization, the mice were administered, for six months starting from three months after birth at intervals of two weeks, two weeks, four weeks, four weeks, five weeks, four weeks, and one week in this order, the four modified tau protein fragments prepared in Preparation Example 1 together with keyhole limpet hemocyanin (KLH) as a carrier and an aluminum adjuvant. At this time, administration was carried out through intraperitoneal injection (IP injection). The dementia mice which were actively immunized by administration of the K280-ac fragment were designated as Tau-P301L-K280-ac.
Glutamate carboxypeptidase-2 ([…], folate hydrolase 1) is a NAAG peptidase that degrades NAAG. There is a possibility that an increase in GCP-II is a cause for decreased NAAG. Thus, brain tissues of the Tau-P301L-K280-ac dementia mice, the P301L-K280-ac dementia mice, and the normal mice produced in Preparation Example 2 were extracted and western blotting was performed.

Tau-P301L dementia mice [2] = test: Water maze test; settings: 5th day, platform removed; normal mice about 3, Tau-P301L about 1
Description: as §1
An underwater maze test was performed to evaluate a learning and memory ability of the mice. […] Specifically, the underwater maze test took a total of 5 days. The mice were trained for 4 days in a state where a platform and a visual cue for the platform location are placed.
The learning was conducted by filling a swimming pool (1.4 m in diameter, 45 cm in depth) having a platform with water (29±0.5° C.) to a depth of about 26.5 cm, and then 1.5 L of whole milk powder was added to make water cloudy so that the mice can remember the platform with the cue only. Then, the mice were adapted to freely swim for 60 seconds and allowed to rest on the platform for 1 minute. The experiment was performed over a total of 12 times with 4 sets at three different starting positions. At the end of each test, 30 seconds of break time was given. At the end of one set, 30 to 45 minutes of break time was given.
After 4 days of learning, the test was performed on the 5th day. In the experiment for evaluation, the platform was not placed, and the number of staying in the area where the platform has been placed was measured in order to identify whether the mice visit well the platform location using the cue only. The test time was set for the mice to arrive at the location where the platform had been placed within one minute. If the mice fail to arrive at the platform location within one minute, the mice were removed out of the swimming pool.

Tau-P301L dementia mice [3] = test: Y-maze experiment; settings: Tau-P301L 50% decrease in measurement time versus normal mice
Description: as §1
In addition, a Y-maze experiment was performed to identify restoration of cognitive function. Specifically, A, B, and C zones were set in a Y-shaped box, and the mice were allowed to freely move for 5 minutes in a state where the B zone was blocked.

Tau-P301L dementia mice [4] = test: Nest building test; settings: Tau-P301L about 50% decrease versus normal mice
Description: as §1
Behavioral experiments were conducted to identify changes in motor ability and cognitive function of the Tau-P301L dementia mice produced in Preparation Example 2. A nest building test which can identify a multimodal brain function of the mice was performed.
Specifically, two-thirds of the litter in a cage where the mice are raised was removed and four layers of sterile cotton (5 cm×5 cm) were placed in the cage. One mouse was allowed to enter one cage. The next morning, a degree of completion of the nest was analyzed.

Tau-P301L dementia mice [5] = test: Grip strength test
Description: as §1
A grip strength test was performed to identify muscle strength of the mice. […] At this time, an iron bundle that weighs 40 g was used for the iron bundle. The mice produced in Preparation Example 2 were held by the tail end, and the forefeet of the mice were caused to be placed on the 40 g iron bundle so that the mice can grab the iron bundle. […] The time until the mice missed the iron bundle was measured and comparison was made for the respective mice.

Tau-P301L dementia mice [6] = test: Novel object recognition experiment; settings: Tau-P301L 50% decrease versus normal mice
Description: as §1
In addition, a memory experiment was performed with novel object recognition. […] Two identical objects were placed in the white box, and then the time spent staying around each object was measured while allowing the mice to make exploration for 5 minutes. 4 hours later, one of the objects installed was replaced with another model, and movement of the mice and the time spent staying around the object were measured for 5 minutes.

Tau-P301L dementia mice [7] = test: Antibody distribution in brain tissue (immunohistochemical staining and western blotting for mouse immunoglobulin-G); settings: after cardiac perfusion
Description: as §1
In order to identify antibodies in brain tissues of the Tau-P301L-K280-ac dementia mice, the P301L-K280-ac dementia mice, and the normal mice produced in Preparation Example 2, cardiac perfusion was performed with cold physiological saline. Then, the brain tissues were extracted, and immunohistochemical staining and western blotting were performed for mouse immunoglobulin-G.

Tau-P301L dementia mice [8] = test: ELISA using plasma: antibody production against modified tau protein fragments; settings: ELISA using plasma after final administration; fragment with KLH and aluminum adjuvant, IP
Description: as §1
In order to identify whether antibodies against the four modified tau protein fragments prepared in Preparation Example 1 were produced, the respective modified tau protein fragments or the full-length tau protein was finally administered, and then ELISA was performed using plasma.

Tau-P301L dementia mice [9] = test: Immunohistochemical staining of brain tissues for tau proteins; settings: brain tissue
Description: as §1
In order to identify a tauopathy-alleviating effect following administration of the K280-ac fragment, brain tissues of the Tau-P301L-K280-ac dementia mice, the P301L-K280-ac dementia mice, and the normal mice produced in Preparation Example 2 were extracted, and western blotting and immunohistochemical staining were performed.

Val-Gln-Ile-Ile-Asn-Lys-Lys-Leu-Asp-Leu-Ser-Asn (VQIINK(Ac)KLDLSN) [K280-ac]
expression level of GCP-II (Tau-P301L dementia mice [1]): decreased expression level of GCP-II which corresponds to that in the normal mice | number of arrivals (Tau-P301L dementia mice [2]): about 3 times | cognitive function in the Y-maze (Tau-P301L dementia mice [3]): restored | building score (Tau-P301L dementia mice [4]): restored to a level which is similar to that in the normal mice | measured time for grab strength (Tau-P301L dementia mice [5]; 40 g iron bundle, normal mice 10 or shorter, Tau-P301L 5 or shorter): about 12 seconds | grip strength, change versus controls (Tau-P301L dementia mice [5]; actively immunized Tau-P301L dementia mice): restored to that of the normal mice | time spent staying around the novel object (Tau-P301L dementia mice [6]): increased to a level which corresponds to that in the normal mice | antibodies in brain tissues (Tau-P301L dementia mice [7]): antibodies are present | antibodies against the fragment produced (Tau-P301L dementia mice [8]): well produced | acetylated tau proteins (Tau-P301L dementia mice [9]): decreased | phosphorylated tau proteins (Tau-P301L dementia mice [9]): decreased
